In this series the test system is 北京鸭红细胞. The series can be described thus: Hemolysis of red blood cells. It counts as cell-based, Peking duck.

No end group written: not given here.

Here are results for two compounds from patent CN113698460A, “一种大肠杆菌lipid A结合基元PCK及其制备方法与应用” (priority 2021, dated 2021).

With `COc1ccc2cc3[n+](cc2c1OC)CCc1cc2c(cc1-3)OCO2` [小檗碱], the Hemolysis rate (berberine alone, concentration not given) worked out at 1%.

For the compound “SYPMYARRFLFKWGLLR-NH2 [PCK, Ser Tyr Pro Met Tyr Ala Arg Arg Phe Leu Phe Lys Trp Gly Leu Leu Arg-NH2]”, where the note is “PCK 0.5-128 μg/mL”, the “Toxicity to Peking duck red blood cells” value was “没有毒性”.
